Reference: BindingDB's records for doi:10.1111/j.1747-0285.2010.00965.x (Ataturk University, 2010)

Key:
[1] = molecular target: Carbonic anhydrase 1 (Homo sapiens, UniProt P00915); assay: Esterase Activity Assay; conditions: pH 7.4; 25 °C
[2] = molecular target: Carbonic anhydrase 2 (Homo sapiens, UniProt P00918); assay: Esterase Activity Assay; conditions: pH 7.4; 25 °C

Sequence of Carbonic anhydrase 1 (P00915 whole entry): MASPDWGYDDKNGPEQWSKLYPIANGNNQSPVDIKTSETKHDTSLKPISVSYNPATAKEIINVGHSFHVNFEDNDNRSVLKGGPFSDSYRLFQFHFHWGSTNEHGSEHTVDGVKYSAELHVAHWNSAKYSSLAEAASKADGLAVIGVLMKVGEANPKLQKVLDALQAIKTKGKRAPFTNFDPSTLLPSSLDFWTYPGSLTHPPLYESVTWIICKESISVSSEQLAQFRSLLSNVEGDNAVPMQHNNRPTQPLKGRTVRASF

Row | Ki [1] | Ki [2] | SMILES
1 | 919 µM | 695 µM | COc1cc(C(=O)O)cc(OC)c1O [Syringic acid]
2 | 441 µM | 537 µM | O=C(O)/C=C/c1ccc(O)cc1 [p-Coumaric Acid]
3 | 207 µM |  | O=c1oc2c(O)c(O)cc3c(=O)oc4c(O)c(O)cc1c4c23 [Elagic Acid]
4 | 408 µM | 210 µM | COc1cc(/C=C/C(=O)O)ccc1O [Ferulic acid (M5)]

The remaining lines, values behind:

Row | SMILES | Ki [1] | Ki [2]
5 | O=C(O)c1cc(O)c(O)c(O)c1 [Gallic Acid, F] | 1050 µM | 758 µM
6 | O=C(O)c1ccc(O)cc1 [4-Hydroxybenzoate, III] | 1060 µM | 
7 | O=c1c(O)c(-c2ccc(O)c(O)c2)oc2cc(O)cc(O)c12 [2-(3,4-dihydroxyphenyl)-3,5,7-trihydroxy-chromone;hydrate] | 99 µM | 105 µM
